This note sets out measurements from article PMC5458211, “Mitochondrial VDAC1-based peptides: Attacking oncogenic properties in glioblastoma” (Oncotarget, 2017).

The assay has as its system metabolic enzymes and transporters. The experiment in a line: Expression of energy- and metabolism-related proteins in treated tumors (IHC, immunoblot). Format: in vivo, human U-87MG in nude mice. As to conditions: for VDAC1 staining: treated tumors vs strong staining in PBS/DMSO. The source says: Figure 5 VDAC1-based peptide-treated tumors show marked changes in the expression of energy- and metabolism-related enzymes Dissected tumors were subjected to immunohistochemistry as described in Experimental Procedures. A, B. Representative sections from PBS/DMSO- and Tf-D-LP4-TTs were IHC stained for Glut-1, HK-I, HK-II, GAPDH, LDH, VDAC1, CS, Complex IVc and ATP synthase 5a are presented. Sections were also hematoxylin-stained and visualized by microscopy. C. Tissue lysates obtained from controls and several Tf-D-LP4-TTs were immunoblotted for HK-I, HK-II, VDAC1, GAPDH, LDH, CS, and ATP synthase 5a. D. Quantitative analysis of immunoblots is shown (n=2-4).
Formalin-fixed, paraffin-embedded sections of control and peptide-TTs were hematoxylin-eosin stained, probed with appropriate antibodies via IHC staining or immunoblotting of cells and tissue extracts. […]
10 ml of aqueous solution containing 1% PVA (w/v). The software. These experimental protocols were approved by mixtures were stirred continuously at room temperature the Institutional Animal Care and Use Committee of Ben-until complete evaporation of the organic solvent. The Gurion University. […]
HBSS solution. Cells or tumor tissue were lysed using lysis buffer (50 mM Tris-HCl, pH 7.5, 150 mM NaCl, 1
Xenograft and intracranial-orthotopic mouse mM EDTA, 1.5 mM MgCl2, 10% glycerol, 1% Triton models X-100, supplemented with a protease inhibitor cocktail
(Calbiochem, UK). Cell lysates were then centrifuged at U-87MG glioblastoma cells (3 x106) were inoculated 600xg (10 min at 4°C) and samples (10-40 μg of protein) s.c. into the hind leg ﬂanks of athymic eight-week old were subjected to SDS-PAGE and immunoblotting male nude mice (Envigo). Thirteen days post-inoculation, using various primary antibodies (sources and dilutions tumor volume was measured and calculated (100-130 as detailed in supplementary Table 2), followed by mm3) and mice were randomized into three groups (5 the appropriate HRP-conjugated secondary antibodies mice/group). Each treatment substance was injected into (i.e., anti-mouse, anti-rabbit or anti-goat). Blots the established s,c. tumors using PBS containing 0.26% were developed using enhanced chemiluminescence DMSO or peptide in PBS, 0.26% DMSO/20 μM). The (Biological Industries). Band intensities were analyzed xenografts were injected 20 µl per tumor (2 points) every by densitometry using Multi Gauge software (Fujifilm) two days. Beginning on the day of inoculation, mouse and the values were normalized to the intensities of the weight and tumor volume were monitored twice a week appropriate β-actin signal that served as a loading control. for a period of 23 days using a digital caliper. At the end of the experiments, the mice were sacrificed, tumors were IHC of tumor tissue sections excised and ex vivo weight was determined. Half of each tumor was either fixed in 4% buffered formaldehyde, IHC staining was performed on 5 μm-thick paraffin-embedded and processed for IHC or frozen in formalin-fixed and paraffin-embedded tumor tissue liquid nitrogen for later immunoblot analysis. sections. The sections were deparaffinized by placing To generate an intracranial-orthotopic mouse model, the slides at 60°C for 1 h and using xylene. […]
(Stoelting, Wood Dale, IL). A middle incision was made c, cytochrome c oxidase subunit IVc, GAPDH, Glut1, on the skull and a burr hole was introduced 0.5 mm HK-II, Klf4, LDH, Nestin, NGFR, P53, SMAC/Diablo, anterior to the bregma and 2.5 mm lateral to the midline Sox2, S100b, VDAC1) was performed in 0.01 M citrate using a drill (Stoelting). A 31-gauge needle loaded with buffer (pH 6.0). For CD31, HK-I and Ki-67, antigen 10 µL PBS was used to deliver tumor cells. The needle retrieval was performed in 10 mM Tris-EDTA (pH 9) and tip was inserted into the brain 3 mm deep, relative to the 0.5 M Tris (pH 10), for 30 minutes each at 95-98°C. After […]

Non-standard residues stand in square brackets, D forms with d. Residues, ends and D or L forms follow the SMILES beside them.

With `CC[C@@H](C)[C@@H](NC(=O)[C@@H](CCCCN)NC(=O)[C@H](NC(=O)[C@@H](CCC(N)=O)NC(=O)[C@@H](CCCNC(=N)N)NC(=O)[C@@H](CC(C)C)NC(=O)CNC(=O)[C@@H](Cc1ccccc1)NC(=O)CNC(=O)[C@@H](Cc1ccc(O)cc1)NC(=O)CNC(=O)[C@@H](CCCCN)NC(=O)[C@H](NC(=O)[C@@H](Cc1ccccc1)NC(=O)[C@H](NC(=O)[C@@H](CC(=O)O)NC(=O)[C@H](N)CCCNC(=N)N)C(C)C)[C@H](C)O)[C@H](C)CC)C(=O)N[C@H](Cc1c[nH]c2ccccc12)C(=O)N[C@H](Cc1ccccc1)C(=O)N[C@H](CCC(N)=O)C(=O)N[C@H](CC(N)=O)C(=O)N[C@H](CCCNC(=N)N)C(=O)N[C@H](CCCNC(=N)N)C(=O)N[C@H](CCSC)C(=O)N[C@H](CCCCN)C(=O)N[C@H](Cc1c[nH]c2ccccc12)C(=O)N[C@H](CCCCN)C(=O)N[C@H](CCCCN)C(=O)O` [D-ΔN-Ter-Antp] (H-[dR][dD][dV][dF][dT][dK]G[dY]G[dF]G[dL][dR][dQ][dI][dK][dI][dW][dF][dQ][dN][dR][dR][dM][dK][dW][dK][dK]-OH; N-terminus and C-terminus assumed), the VDAC1 staining entry is on record as “only very weak staining”.
Consider `CC[C@H](C)[C@H](NC(=O)[C@H](C)NC(=O)[C@@H](N)Cc1c[nH]cn1)C(=O)N[C@@H](Cc1ccc(O)cc1)C(=O)N1CCC[C@H]1C(=O)N[C@@H](CCCNC(=N)N)C(=O)N[C@@H](Cc1c[nH]cn1)C(=O)N[C@@H](CO)C(=O)N[C@@H](Cc1c[nH]c2ccccc12)C(=O)N[C@H](C(=O)N[C@@H](Cc1c[nH]c2ccccc12)C(=O)N[C@@H](CCC(=O)O)C(=O)N[C@H](CCCCN)C(=O)N[C@H](CCCCN)C(=O)N[C@H](CC(C)C)C(=O)N[C@H](CCC(=O)O)C(=O)N[C@@H](C(=O)N[C@H](C)C(=O)N[C@@H](C(=O)N[C@H](CC(N)=O)C(=O)N[C@H](CC(C)C)C(=O)N[C@H](C)C(=O)N[C@H](Cc1c[nH]c2ccccc12)C(=O)N[C@@H](C(=O)N[C@H](C)C(=O)NCC(=O)N[C@H](CC(N)=O)C(=O)N[C@H](CO)C(=O)N[C@H](CC(N)=O)C(=O)N[C@@H](CCCCN)C(=O)N[C@@H](Cc1c[nH]c2ccccc12)C(=O)N[C@H](C(=O)N[C@@H](Cc1c[nH]c2ccccc12)C(=O)N[C@@H](CCCCN)C(=O)O)[C@@H](C)O)[C@H](C)O)C(C)C)[C@H](C)O)[C@@H](C)O` [Tf-D-LP4], for which the VDAC1 staining entry is listed as “only very weak staining”. Under “treated tumors vs PBS/DMSO”, the “ATP synthase subunit 5a expression” value is given as “markedly lower”, the GAPDH level result is “dramatically lower”, the Glut-1 level result is “dramatically lower” and the HK-I level result was “dramatically lower”. In addition, for the setting “treated tumors vs PBS/DMSO”, the HK-II level result is on record as “dramatically lower”, the LDH level result is “dramatically lower”, the “citrate synthase (CS) expression” value is reported as “markedly lower” and the “complex IVc expression” value is listed as “markedly lower”.
